The source of these data is US5068325A, “4,5,7,8-tetrahydro-6H-thiazolo[5,4-d]azepines, their preparation and their use as pharmaceutical compositions” (priority 1988, dated 1991).

In one assay the target is T1, dopamine D1-receptors (Rattus norvegicus, UniProt P18901).
T1 construct: The striata were dissected out, weighed and homogenised in 25 volumes of tris buffer; from tissue; host or cells: rat striatum membranes (Chbb:Thom strain), prepared as for the D2 assay
Put plainly: affinity for dopamine D1-receptors by displacement experiments with [3H]-Sch 23390. It is filed as binding. The procedure:
(§1) Male rats (of the Chbb:Thom strain weighing about 200 g) were killed by a blow to the back of the neck. The brains were removed and dissected on ice. The striata were dissected out, weighed and homogenised in 25 volumes of tris buffer (50 mM tris-HCl, 1 mM EDTA, 5 mM MgCl2 and 1 mM ascorbic acid) for 30 seconds in an Ultra-Turrax at maximum speed, followed by 10 cycles in a Potter-Elvehjem at 1400 rpm. The pellet obtained after centrifuging at 50,000×g at 4° C. for 15 minutes was again taken up in 25 ml of tris buffer and centrifuged under the above conditions. The supernatant was discarded and the pellet obtained was incubated in 25 ml of tris buffer at 37° C. for 30 minutes and then centrifuged again at 50,000×g at 4° C. for 15 minutes. Finally, the pellet obtained was mixed with tris buffer to obtain a homogenate dilution of 1:500 (based on the weight of the striata).
(§2) Displacement curves were obtained from the data using the TOPFIT programming package (G. Heinzel in "Pharmacokinetics During Drug Development: Data Analysis and Evaluation Techniques", G. Bozler and J. M. van Rossum Eds., G. Fischer Verlag, Stuttgart 1982, 207).
7. Determining the affinity for dopamine D1-receptors by displacement experiments with [^3 H1-Sch 23390
The membrane preparation and data analysis were carried out as described for determining the affinity for dopamine D2 - receptors.
1 ml aliquots of the membrane preparation were incubated for 1 hour at ambient temperature with 1 ml of a solution of 0.25 nM [^3 H]-Sch 23390 (2.44 TBq/mmol, Messrs. DuPont NEN) and with increasing concentrations of the test substance (10^-11 to 10^-4 M). Incubation was ended by the addition of 5 ml of ice cold tris buffer and filtration through Whatman GF/B filters. The filters were washed twice, each time with 5 ml of ice cold buffer. The radioactivity of the filters was determined by liquid scintillation measurement in Instagel(R) (Messrs. Canberra Packard).
The non-specific binding was determined in the presence of 10^-6 M (-)-butaclamol (Research Biochemicals Inc.).

Assay [1] relates to hypersensitive dopamine receptor. Put plainly: motility triggering in the mouse treated 24 hours earlier with reserpine. Type of assay: in vivo. Particulars: Mus musculus, sc; reserpine-treated mice, s.c.; read-out: DLi50 (dosage resulting in 50 running pulses every 5 minutes). The procedure: This test determines predominantly agonistic effects on the hypersensitive dopamine receptor.
Male mice are treated 24 hours before the experiment with 5 mg/kg i.p. reserpine. The animals are kept at 25°-30° C. and treated three times with 2 ml of a 5% glucose solution in tyrode s.c. (the first time when the reserpine is given, the second time in the evening of the pre-treatment day and the third time on the morning of the test day).
[…] (The injection volume is usually 0.1 ml/10 g of body weight). 30 minutes later the groups of animals are placed in the observation cages (measuring 42 x 24 x 8 cm) and fitted with an infrared lightbeam in order to measure their activity. The value measured is the frequency with which a group of 6 mice pass through the infra-red beam within 5 minutes ("running pulses/5 minutes"; mean at n=3; mean±s.e.m. at n=6).
3 to 6 groups are tested for each substance.

The target of another assay is dopamine D2-receptors (Rattus norvegicus, UniProt P61169). Put plainly: affinity for dopamine D2-receptors by displacement experiments with [3H]-spiperone (rat striatum membranes). It is filed as binding. Conditions: for Ki: [3H]-spiperone, high-affinity form of the dopamine receptor; for α2-IC50 / D2-Ki: relative affinity for dopamine-D2 receptors compared with α2-adrenoceptors, the higher, the higher the D2/α2 selectivity. The procedure:
1Determining the affinity for dopamine D2-receptors by displacement experiments with [^3 H]-spiperone (Modified Method of W. Billard et al., Life Sci. 35, 1885 (1984) and D. J. de Vries and P. M. Beart, Eur. J. Pharmacol. 109, 417 (1985))
as §1
1 ml aliquots of the membrane preparation were incubated with 1 ml of a solution of 0.25 nM [^3 H]-spiperone ([…], Messrs. DuPont NEN) and at increasing concentrations of the test substance (10^-11 to 10^-4 M) at ambient temperature for one hour. Incubation was ended by the addition of 5 ml of ice cold tris buffer and filtration using Whatman GF/B filters. The filters were washed twice, each time with 5 ml of ice cold buffer. The radioactivity of the filters was determined by liquid scintillation measurement in Instagel^(R) (Messrs. Canberra Packard). Non-specific binding was determined in the presence of 10^-5 M haloperidol (Sigma Chemical Co.).
as §2

For the next assay, the target named is T2, alpha-2 receptors (Rattus norvegicus, UniProt P22909).
T2 sequence (P22909 1-465): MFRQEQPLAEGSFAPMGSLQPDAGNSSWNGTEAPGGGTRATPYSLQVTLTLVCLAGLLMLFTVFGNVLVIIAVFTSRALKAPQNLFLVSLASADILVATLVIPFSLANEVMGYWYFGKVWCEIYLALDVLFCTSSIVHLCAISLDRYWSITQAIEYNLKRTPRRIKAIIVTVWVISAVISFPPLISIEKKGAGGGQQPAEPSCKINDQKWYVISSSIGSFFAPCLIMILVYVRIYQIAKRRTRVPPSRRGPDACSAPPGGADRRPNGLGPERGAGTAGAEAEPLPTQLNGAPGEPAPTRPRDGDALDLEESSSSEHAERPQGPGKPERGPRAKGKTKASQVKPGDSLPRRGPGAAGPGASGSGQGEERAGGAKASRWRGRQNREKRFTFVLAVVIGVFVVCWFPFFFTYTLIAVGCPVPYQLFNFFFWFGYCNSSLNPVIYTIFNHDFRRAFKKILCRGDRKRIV
Put plainly: affinity for alpha-2 receptors by displacement experiments with [3H]-clonidine (rat cortex membranes). Particulars: read-out: α2-IC50. It is filed as binding.

Assay [2] has as its target T3, serotonin-1A(5-HT1A) receptors (Rattus norvegicus, UniProt P19327).
T3 construct: The frontal cortex was dissected out; from tissue; host or cells: rat frontal cortex homogenate (Chbb:Thom strain)
T3 sequence (P19327 1-422): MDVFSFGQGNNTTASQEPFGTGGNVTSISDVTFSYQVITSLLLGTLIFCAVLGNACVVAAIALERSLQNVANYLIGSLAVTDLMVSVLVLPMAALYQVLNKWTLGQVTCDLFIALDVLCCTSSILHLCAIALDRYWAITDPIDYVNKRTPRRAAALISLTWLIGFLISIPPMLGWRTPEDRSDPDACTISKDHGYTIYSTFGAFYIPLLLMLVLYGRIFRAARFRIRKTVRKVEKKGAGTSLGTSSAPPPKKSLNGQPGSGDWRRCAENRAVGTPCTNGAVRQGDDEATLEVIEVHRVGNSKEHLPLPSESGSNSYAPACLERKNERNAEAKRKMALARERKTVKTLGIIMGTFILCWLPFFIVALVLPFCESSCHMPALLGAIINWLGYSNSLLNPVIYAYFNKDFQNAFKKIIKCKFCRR
Put plainly: affinity for serotonin-1A (5-HT1A) receptors by displacement experiments with [3H]-8-OH-DPAT (rat frontal cortex). It is filed as binding. Conditions: [3H]-8-OH-DPAT; rat frontal cortex; read-out: 5-HT1A-Ki. As for the experimental part:
3. […] (Method of S. J. Peroutka, J. Neurochem. 47, 529 (1986), modified according to H. Gozlan et al., J. Receptor Research 7. 195 (1987))
A male rat (Chbb:Thom strain weighing about 200 g) was decapitated. The brain was removed and placed in ice-cold buffer (50 mmol/1 tris-HCl plus hydrochloric acid ad pH =7.4 at ambient temperature). The frontal cortex was dissected out; its moist weight was determined. It was homogenised in 40 times its volume of buffer (Polytron, position 6, 10 seconds), then centrifuged for 20 minutes at 45,000×g in the refrigerated centrifuge. The pellet was washed in 100 times its volume of buffer and centrifuged again as described above. The resulting pellet was resuspended in 40 times its volume of buffer and pre-incubated for 10 minutes at 37° C. Sixty times the volume of buffer were added and centrifuging was carried out as above. The resulting pellet was washed with 100 times the volume of buffer and centrifuged as above. The pellet was resuspended in buffer (0.8 ml/10 mg) and briefly homogenised in the Polytron. This homogenised tissue was cooled in ice until ready for incubation.
Incubation was stopped by rapid filtering through Whatman GF/B filters; rinsing was carried out twice, each time with 5 ml of ice cold buffer (Filter Prep, Messrs. Ismatec). The radioactivity of the filters was determined by liquid scintillation measurement.
(§3) Specific binding is obtained from total binding minus non-specific binding.

Assay [3] has as its target T4, serotonin-2(5-HT2)-receptors (Rattus norvegicus, UniProt P14842).
T4 construct: The frontal cortex was dissected out and placed in ice cold 0.32 M saccharose solution; from tissue; host or cells: rat frontal cortex homogenate (Chbb:Thom strain)
Put plainly: affinity for serotonin-2 (5-HT2) receptors by displacement experiments with [3H]-spiperone (rat frontal cortex). It is filed as binding. As for the experimental part: as §3
A male rat (Chbb:Thom strain, about 200 g) was decapitated. The brain was removed. The frontal cortex was dissected out and placed in ice cold 0.32 M saccharose solution; its moist weight was determined. It was homogenised in 10 times the volume (0.32 M) of saccharose solution for 1 minute at 800 rpm in a Potter S (made by Braun of Melsungen). The homogenised material was centrifuged for 10 minutes at 1000×g (=3,000 rpm with a rotor 8×38 ml) in a refrigerated centrifuge. The supernatant was decanted off and homogenised (Polytron, position 5, 1 minute); the sediment was discarded. 5 ml (=0.5 g moist weight) of the tissue suspension thus obtained were made up to 40 ml with buffer (50 mm tris-HCl; pH=7.7 at ambient temperature).
0.8 ml of the buffered homogenised tissue (=10 mg moist weight) were incubated with 0.1 ml of a solution of [^3 H]-spiperone (about 0.2 nmol/1 final concentration) and with 0.1 ml of a solution of the test substance (increasing concentration) for 15 minutes at 37° C. (triple measurement). Incubation was stopped by rapid filtering through a Whatman GF/B filter; rinsing was carried out 3 times, each time with 5 ml of ice cold buffer within a maximum of 10 seconds (Filter Prep Messrs. Ismatec). The radioactivity of the filters was determined by liquid scintillation measurement.
The specific binding is obtained from the total binding minus the non-specific binding. The averages of the triple measurements are entered in a system of coordinates as in 1.3. The IC50 value is the concentration which inhibits the specific binding of [^3 H]-spiperone by 50%.

T1 sequence (P18901 whole entry): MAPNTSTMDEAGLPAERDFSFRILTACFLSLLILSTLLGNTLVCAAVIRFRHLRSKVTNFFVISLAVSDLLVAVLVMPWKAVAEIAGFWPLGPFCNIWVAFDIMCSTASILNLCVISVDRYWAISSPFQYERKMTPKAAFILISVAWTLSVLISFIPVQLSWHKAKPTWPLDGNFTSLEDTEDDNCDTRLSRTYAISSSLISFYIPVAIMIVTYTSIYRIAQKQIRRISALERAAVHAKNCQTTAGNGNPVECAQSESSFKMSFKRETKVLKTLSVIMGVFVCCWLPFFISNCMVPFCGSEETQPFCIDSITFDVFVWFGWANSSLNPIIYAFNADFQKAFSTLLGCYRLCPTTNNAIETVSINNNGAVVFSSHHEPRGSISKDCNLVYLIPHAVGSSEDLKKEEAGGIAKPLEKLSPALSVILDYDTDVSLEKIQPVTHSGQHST
Chain of dopamine D2-receptors (P61169 whole entry): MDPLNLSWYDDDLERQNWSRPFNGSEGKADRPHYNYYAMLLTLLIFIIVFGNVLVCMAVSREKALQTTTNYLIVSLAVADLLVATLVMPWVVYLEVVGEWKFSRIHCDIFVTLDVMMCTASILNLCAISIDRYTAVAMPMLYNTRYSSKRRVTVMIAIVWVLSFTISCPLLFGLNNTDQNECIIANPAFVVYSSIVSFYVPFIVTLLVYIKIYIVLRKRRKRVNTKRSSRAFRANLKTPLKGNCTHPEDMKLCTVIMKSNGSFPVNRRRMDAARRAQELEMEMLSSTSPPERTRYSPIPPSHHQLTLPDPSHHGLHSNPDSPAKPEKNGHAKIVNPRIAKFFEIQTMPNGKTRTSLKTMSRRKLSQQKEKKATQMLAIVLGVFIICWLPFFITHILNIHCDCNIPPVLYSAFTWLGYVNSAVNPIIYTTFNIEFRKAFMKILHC
T4 sequence (P14842 whole entry): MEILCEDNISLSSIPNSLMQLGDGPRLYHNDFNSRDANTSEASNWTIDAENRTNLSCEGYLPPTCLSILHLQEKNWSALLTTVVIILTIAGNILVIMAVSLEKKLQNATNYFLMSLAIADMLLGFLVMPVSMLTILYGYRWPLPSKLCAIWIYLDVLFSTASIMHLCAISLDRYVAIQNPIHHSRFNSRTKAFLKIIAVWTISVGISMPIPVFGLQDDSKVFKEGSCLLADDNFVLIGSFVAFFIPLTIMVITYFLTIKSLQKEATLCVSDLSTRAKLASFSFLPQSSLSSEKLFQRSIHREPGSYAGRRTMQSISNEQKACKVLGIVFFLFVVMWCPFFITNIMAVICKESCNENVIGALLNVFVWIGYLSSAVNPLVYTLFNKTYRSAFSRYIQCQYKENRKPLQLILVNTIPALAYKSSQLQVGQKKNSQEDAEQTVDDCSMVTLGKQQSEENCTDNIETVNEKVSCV
Procedure for alpha-2 receptors: Determination of the affinity for alpha-2 receptors by displacement experiments with [^3 H] clonidine (Modified Method of B. Jarrott, W. J. Louis and R. J. Summers, Biochem. Pharmacol. 27, 141 (1979))
A male rat (Chbb:Thom strain weighing about 200 g) was killed by a blow to the back of the neck. The brain was removed and the cortex dissected out, weighed and homogenised in 25 volumes of tris buffer (50 mM tris- HCl, pH 7.50) for 30 seconds in an Ultra-Turrax at maximum speed, followed by 10° Cycles in a Potter- Elvehjem at 1400 rpm. The homogenised material was combined with tris buffer to obtain a homogenate dilution of 1:50 (based on the weight of the cortex).
1 ml aliquots of the membrane preparation were incubated for three hours at ambient temperature with 1 ml of a solution of 1 nM of [^3 H]-clonidine (2.2 TBq/mmol, Messrs. DuPont NEN) and with increasing concentrations of the test substance (10^-11 to 10^-4 M). Incubation was ended by the addition of 5 ml of ice-cold tris buffer and filtration through Whatman GF/B filters. The filters were washed twice, each time with 5 ml of ice cold buffer. The radioactivity of the filters was determined by liquid scintillation measurement in Instagel(R) (Messrs. Canberra Packard). The non-specific binding was determined in the presence of 10^-5 M of oxymetazoline (Sigma Chemical Co.).

Take `Nc1nc2c(s1)CCN(CC=Cc1ccccc1OCc1ccccc1)CC2` [Example 4x, 2-Amino-6-(3-(2-benzyloxy-phenyl)allyl)-4,5,7,8-tetrahydro-6H-thiazolo[5,4-d]azepine]: the Ki at dopamine D1-receptors came out at 400 nM.

`Nc1nc2c(s1)CCN(CC=Cc1ccco1)CC2` [Example 8, 2-Amino-6-(3-(2-furyl)allyl)-4,5,7,8-tetrahydro-6H-thiazolo[5,4-d]azepine]: in assay [1], the ED (50 running pulses/5 min) came to 0.34 mg/kg.

As for `Nc1nc2c(s1)CCN(CC=Cc1ccsc1)CC2` [Example 4a, 2-Amino-6-(3-(3-thienyl)allyl)-4,5,7,8-tetrahydro-6H-thiazolo[5,4-d]azepin], the ED (50 running pulses/5 min) in assay [1] was found to be 1.85 mg/kg.

Turning to `Nc1nc2c(s1)CCN(CCC=Cc1ccccc1)CC2` [Example 8k, 2-Amino-6-(4-phenyl-3-buten-1-yl)-4,5,7,8-tetrahydro-6H-thiazolo[5,4-d]azepine], on dopamine D1-receptors, affinity was put at a Ki of 510 nM.

`Nc1nc2c(s1)CCN(CC1=Cc3ccccc3CC1)CC2` [Example 1b, 2-Amino-6-(1,2-dihydronaphthalen-3-yl-methyl)-4,5,7,8-tetrahydro-6H-thiazolo[5,4-d]azepine] came in with a Ki on dopamine D1-receptors of 800 nM.

As to `Nc1nc2c(s1)CCN(CC=Cc1cccnc1)CC2` [Example 11b, 2-Amino-6-(3-(3-pyridyl)allyl)-4,5,7,8-tetrahydro-6H-thiazolo[5,4-d]azepine], in assay [1], the ED (50 running pulses/5 min) was found to be 0.29 mg/kg.

In the case of `Nc1nc2c(s1)CCN(CC=Cc1ccc3ccccc3c1)CC2` [Example 4u, 2-Amino-6-(3-(2-naphthyl)allyl)-4,5,7,8-tetrahydro-6H-thiazolo[5,4-d]azepine], the Ki on dopamine D2-receptors was 6.9 nM; in assay [2], 14000 nM; in assay [3], 350 nM. Moreover, at dopamine D2-receptors, the “α2-IC50 / D2-Ki” value came to 318. Further, at alpha-2 receptors, the IC50 worked out at 2200 nM.

Turning to `Nc1nc2c(s1)CCN(CC#Cc1ccccc1)CC2` [Example 4d, 2-Amino-6-(3-phenyl-2-propyn-1-yl)-4,5,7,8-tetrahydro-6H-thiazolo[5,4-d]azepine], the Ki stood at 10 nM at dopamine D2-receptors, 14200 nM in assay [2] and 1800 nM in assay [3]. The “α2-IC50 / D2-Ki” value at dopamine D2-receptors is reported as 89. The IC50 on alpha-2 receptors came out at 890 nM.

With `Nc1nc2c(s1)CCN(CCc1ccccc1)CC2` [Compound C, 2amino-6-(2phenylethyl)-4,5,7,8-tetrahydro-6H-thiazolo[5,4d]azepine, reference compound], at dopamine D2-receptors, the Ki is 410 nM and the “α2-IC50 / D2-Ki” value is reported as 12.4. The IC50 at alpha-2 receptors is 5100 nM. The molecule also showed a Ki at dopamine D1-receptors of 11000 nM.
